As usually defined, the inhibition is the share of the control response that was lost under treatment.

Counter-ions that a name gives are not always drawn.

Assay [1] addresses T1, Recombinant human IKKβ (residues 1-737) (Homo sapiens, UniProt O14920).
T1 construct: Recombinant human IKKβ (residues 1-737); GST (C); made in house
T1 sequence (O14920 1-737): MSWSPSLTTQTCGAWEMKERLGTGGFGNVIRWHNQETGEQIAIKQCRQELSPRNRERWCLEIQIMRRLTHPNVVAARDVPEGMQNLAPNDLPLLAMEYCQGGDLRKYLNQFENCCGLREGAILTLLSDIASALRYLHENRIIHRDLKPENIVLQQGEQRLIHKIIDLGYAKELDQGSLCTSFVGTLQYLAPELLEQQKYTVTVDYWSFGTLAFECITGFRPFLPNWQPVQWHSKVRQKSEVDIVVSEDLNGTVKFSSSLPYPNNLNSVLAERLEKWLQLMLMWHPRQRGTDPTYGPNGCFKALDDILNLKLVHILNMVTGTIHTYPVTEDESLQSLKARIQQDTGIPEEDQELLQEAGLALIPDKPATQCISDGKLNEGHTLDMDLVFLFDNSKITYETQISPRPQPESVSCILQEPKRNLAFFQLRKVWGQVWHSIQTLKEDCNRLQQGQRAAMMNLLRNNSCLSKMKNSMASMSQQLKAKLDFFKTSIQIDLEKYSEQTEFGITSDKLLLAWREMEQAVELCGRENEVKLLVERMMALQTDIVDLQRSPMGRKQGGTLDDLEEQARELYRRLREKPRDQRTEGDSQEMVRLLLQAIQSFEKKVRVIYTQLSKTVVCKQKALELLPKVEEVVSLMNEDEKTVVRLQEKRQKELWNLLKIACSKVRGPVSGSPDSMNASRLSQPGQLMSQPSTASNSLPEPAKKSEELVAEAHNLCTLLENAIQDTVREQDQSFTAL
The assay can be described thus: IKK2 assay (TR-FRET). The class given is biochemical. The note with it: ATP 1 μM final, read-out: pIC50 against IKK2 (converted). In a few lines:
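Baculovirus-expressed C-terminal GST-tagged IKKβ (0.5-5 nM final) in HEPES pH 7.4, MgCl2, CHAPS, DTT, BSA with 1.7% DMSO; 25 nM GST-IB substrate and 1 μM ATP, 15 min at room temperature. EDTA stop; phospho-Ser32/36 detected by Eu-antibody/APC-anti-GST TR-FRET, 665/620 nm ratio.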
A general note: In TR-FRET formats the signal depends on donor and acceptor labels being close together.

The subject of assay [2] is human monocyte stimulated cytokine production (TNF-α). The assay can be described thus: Monocyte assay (LPS-stimulated TNF-α production). It is filed as cell-based. The note with it: for IC50: 24 h, 200 ng/mL LPS, TNF-α by ELISA; for inhibition at 0.3 µM: read-out: inhibition at 300 nM in the monocyte assay. In a few lines:
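Human CD14+ monocytes were purified from blood and plated at 1×10^6 cells/mL in RPMI 1640 with 10% FBS. Compound was added 30 min before stimulation with 200 ng/mL LPS (0.1% DMSO final), followed by 24 hrs at 37 C. Supernatant TNF-α was measured by ELISA, and viability by trypan blue exclusion.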
Background: An ELISA detects its analyte on a solid surface through an enzyme-linked reagent.

Regarding `CCS(=O)(=O)N1CCC(c2c[nH]c3c(C(N)=O)cc(-c4cc(CNCC(C)(C)C)ccc4F)cc23)CC1` [Example 336, 5-(5-{[(2,2-dimethylpropyl)amino]methyl}-2-fluorophenyl)-3-[1-(ethylsulfonyl)-4-piperidinyl]-1H-indole-7-carboxamide trifluoroacetate], the IC50 in assay [1] was no more than 10 µM; in assay [2], no more than 1.5 µM.
For the molecule `CCS(=O)(=O)N1CCC(c2c[nH]c3c(C(N)=O)cc(-c4cc(CN[C@@H](C)C(C)C)ccc4F)cc23)CC1` [Example 337, 5-[5-({[(1S)-1,2-dimethylpropyl]amino}methyl)-2-fluorophenyl]-3-[1-(ethylsulfonyl)-4-piperidinyl]-1H-indole-7-carboxamide trifluoroacetate], the IC50 in assay [1] was no more than 10 µM; in assay [2], no more than 1.5 µM.
For `CCS(=O)(=O)N1CCC(c2c[nH]c3c(C(N)=O)cc(-c4cc(CN[C@H](C)C(C)C)ccc4F)cc23)CC1` [Example 338, 5-[5-({[(1R)-1,2-dimethylpropyl]amino}methyl)-2-fluorophenyl]-3-[1-(ethylsulfonyl)-4-piperidinyl]-1H-indole-7-carboxamide trifluoroacetate], in that order: no more than 10 µM and greater than 1 µM.
On to `CCS(=O)(=O)N1CCC(c2c[nH]c3c(C(N)=O)cc(-c4cc(CNCC5CC5)ccc4F)cc23)CC1` [Example 339, 5-(5-{[(cyclopropylmethyl)amino]methyl}-2-fluorophenyl)-3-[1-(ethylsulfonyl)-4-piperidinyl]-1H-indole-7-carboxamide trifluoroacetate], for which the IC50 was no more than 10 µM in assay [1] and greater than 1 µM in assay [2].
With `CCS(=O)(=O)N1CCC(c2c[nH]c3c(C(N)=O)cc(-c4cc(CN5CCCC5)ccc4F)cc23)CC1` [Example 340, 3-[1-(ethylsulfonyl)-4-piperidinyl]-5-[2-fluoro-5-(1-pyrrolidinylmethyl)phenyl]-1H-indole-7-carboxamide trifluoroacetate], the IC50 in assay [1] was no more than 10 µM; in assay [2], greater than 1 µM.
`CCS(=O)(=O)N1CCC(c2c[nH]c3c(C(N)=O)cc(-c4cc(CN5CCOCC5)ccc4F)cc23)CC1` [Example 341, 3-[1-(ethylsulfonyl)-4-piperidinyl]-5-[2-fluoro-5-(4-morpholinylmethyl)phenyl]-1H-indole-7-carboxamide trifluoroacetate]: the IC50 in assay [1] is no more than 10 µM; in assay [2], greater than 1 µM.
For `CCS(=O)(=O)N1CCC(c2c[nH]c3c(C(N)=O)cc(-c4cc(CNCCOC)ccc4F)cc23)CC1` [Example 342, 3-[1-(ethylsulfonyl)-4-piperidinyl]-5-[2-fluoro-5-({[2-(methyloxy)ethyl]amino}methyl)phenyl]-1H-indole-7-carboxamide trifluoroacetate] the same measures were no more than 10 µM and no more than 1.5 µM.
Turning to `CCS(=O)(=O)N1CCC(c2c[nH]c3c(C(N)=O)cc(-c4cc(CNCCCOC)ccc4F)cc23)CC1` [Example 343, 3-[1-(ethylsulfonyl)-4-piperidinyl]-5-[2-fluoro-5-({[3-(methyloxy)propyl]amino}methyl)phenyl]-1H-indole-7-carboxamide trifluoroacetate], the IC50 in assay [1] was no more than 10 µM; in assay [2], no more than 1.5 µM.
Turning to `CCS(=O)(=O)N1CCC(c2c[nH]c3c(C(N)=O)cc(-c4cccc(C5CCCN5C)c4)cc23)CC1` (stereo not shown) [Example 344, 3-[1-(ethylsulfonyl)-4-piperidinyl]-5-[3-(1-methyl-2-pyrrolidinyl)phenyl]-1H-indole-7-carboxamide trifluoroacetate], the IC50 in assay [1] is no more than 10 µM; in assay [2], no more than 1.5 µM.
Take `CCS(=O)(=O)N1CCC(c2c[nH]c3c(C(N)=O)cc(-c4cccc(CCNCC(C)C)c4)cc23)CC1` [Example 345, 3-[1-(ethylsulfonyl)-4-piperidinyl]-5-(3-{2-[(2-methylpropyl)amino]ethyl}phenyl)-1H-indole-7-carboxamide trifluoroacetate]: the IC50 in assay [1] is no more than 10 µM. In assay [2], the inhibition at 0.3 µM was 0 to 60%.
`CCNCCc1cccc(-c2cc(C(N)=O)c3[nH]cc(C4CCN(S(=O)(=O)CC)CC4)c3c2)c1` [Example 346, 5-{3-[2-(ethylamino)ethyl]phenyl}-3-[1-(ethylsulfonyl)-4-piperidinyl]-1H-indole-7-carboxamide trifluoroacetate]: the figures for the IC50 in assay [1] and in assay [2] were no more than 10 µM and no more than 1.5 µM, respectively.
Consider `CCCNCCc1cccc(-c2cc(C(N)=O)c3[nH]cc(C4CCN(S(=O)(=O)CC)CC4)c3c2)c1` [Example 347, 3-[1-(ethylsulfonyl)-4-piperidinyl]-5-{3-[2-(propylamino)ethyl]phenyl}-1H-indole-7-carboxamide trifluoroacetate], for which, in assay [1], the IC50 was no more than 10 µM. Also, in assay [2], the inhibition at 0.3 µM was 0 to 60%.
On to `CCS(=O)(=O)N1CCC(c2c[nH]c3c(C(N)=O)cc(-c4cccc(CCN(C)C)c4)cc23)CC1` [Example 348, 5-{3-[2-(dimethylamino)ethyl]phenyl}-3-[1-(ethylsulfonyl)-4-piperidinyl]-1H-indole-7-carboxamide trifluoroacetate], for which the IC50 in assay [1] was no more than 10 µM; in assay [2] it was no more than 1.5 µM.
For `CCCN(CCC)CCc1cccc(-c2cc(C(N)=O)c3[nH]cc(C4CCN(S(=O)(=O)CC)CC4)c3c2)c1` [Example 349, 5-{3-[2-(dipropylamino)ethyl]phenyl}-3-[1-(ethylsulfonyl)-4-piperidinyl]-1H-indole-7-carboxamide trifluoroacetate], the IC50 in assay [1] was no more than 10 µM. Besides, the inhibition at 0.3 µM in assay [2] lay in the range of 0 to 60%.
`CCS(=O)(=O)N1CCC(c2c[nH]c3c(C(N)=O)cc(-c4cccc(CNCCn5nc(C)cc5C)c4)cc23)CC1` [Example 350, 5-[3-({[2-(3,5-dimethyl-1H-pyrazol-1-yl)ethyl]amino}methyl)phenyl]-3-[1-(ethylsulfonyl)-4-piperidinyl]-1H-indole-7-carboxamide trifluoroacetate]: the IC50 in assay [1] is no more than 10 µM. The inhibition at 0.3 µM in assay [2] lay in the range of 0 to 60%.
In the case of `CCS(=O)(=O)N1CCC(c2c[nH]c3c(C(N)=O)cc(-c4csc(CN5CCOCC5)n4)cc23)CC1` [Example 351, 3-[1-(ethylsulfonyl)-4-piperidinyl]-5-[2-(4-morpholinylmethyl)-1,3-thiazol-4-yl]-1H-indole-7-carboxamide trifluoroacetate], the IC50 in assay [1] is no more than 10 µM. Besides, the inhibition at 0.3 µM in assay [2] fell in the range of 0 to 60%.
For `CCS(=O)(=O)N1CCC(c2c[nH]c3c(C(N)=O)cc(-c4csc(CNCC(C)C)n4)cc23)CC1` [Example 352, 3-[1-(ethylsulfonyl)-4-piperidinyl]-5-(2-{[(2-methylpropyl)amino]methyl}-1,3-thiazol-4-yl)-1H-indole-7-carboxamide trifluoroacetate], the IC50 in assay [1] is no more than 10 µM. For the same molecule, in assay [2], the inhibition at 0.3 µM lay in the range of 0 to 60%.
For `CCS(=O)(=O)N1CCC(c2c[nH]c3c(C(N)=O)cc(-c4csc(CN5CCCC5)n4)cc23)CC1` [Example 353, 3-[1-(ethylsulfonyl)-4-piperidinyl]-5-[2-(1-pyrrolidinylmethyl)-1,3-thiazol-4-yl]-1H-indole-7-carboxamide], in assay [1], the IC50 was no more than 10 µM. For the same molecule, in assay [2], the IC50 is no more than 1.5 µM and the inhibition at 0.3 µM was 0 to 60%.
On to `CCS(=O)(=O)N1CCC(c2c[nH]c3c(C(N)=O)cc(-c4csc(CN(C)C)n4)cc23)CC1` [Example 355, 5-{2-[(dimethylamino)methyl]-1,3-thiazol-4-yl}-3-[1-(ethylsulfonyl)-4-piperidinyl]-1H-indole-7-carboxamide trifluoroacetate], for which, in assay [1], the IC50 was no more than 10 µM. The inhibition at 0.3 µM in assay [2] lay within 0 to 60%.
For the molecule `CCN(C)Cc1nc(-c2cc(C(N)=O)c3[nH]cc(C4CCN(S(=O)(=O)CC)CC4)c3c2)cs1` [Example 356, 5-(2-{[ethyl(methyl)amino]methyl}-1,3-thiazol-4-yl)-3-[1-(ethylsulfonyl)-4-piperidinyl]-1H-indole-7-carboxamide trifluoroacetate], the IC50 was no more than 10 µM in assay [1] and no more than 1.5 µM in assay [2].
On to `CCS(=O)(=O)N1CCC(c2c[nH]c3c(C(N)=O)cc(-c4cc(C#N)cc(CNCC(C)C)c4)cc23)CC1` [Example 357, 5-(3-cyano-5-{[(2-methylpropyl)amino]methyl}phenyl)-3-[1-(ethylsulfonyl)-4-piperidinyl]-1H-indole-7-carboxamide trifluoroacetate], for which the IC50 in assay [1] was no more than 10 µM; in assay [2] it was no more than 1.5 µM.

The record behind these values is patent US8063071B2 (GlaxoSmithKline, LLC, priority 2007, dated 2011).
